Laboratory results published in US9988400B2 (Genentech, Inc., priority 2013, dated 2018).

Target: T1, HEK cells stably transfected with tetracycline inducible hNR1 and hNR2A (Homo sapiens, UniProt Q05586+Q12879)
T1 construct: expressed in transfected cells; host or cells: HEK cells, stably transfected, tetracycline/doxycycline inducible
Test: Assay 1: Cell-Based Assay, cytosolic calcium response to positive allosteric modulators (with 30 μM glycine and 300 nM L-glutamate, EC30)
Details: for EC50: cytosolic calcium response, with 30 μM glycine and 300 nM L-glutamate (EC30), — = no plateau was reached; for Max %: responses scaled relative to 100 μM L-glutamate maximal response (100%) and 0 μM L-glutamate (0%)
Method in brief: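 Cells induced 24 h with 7.5 μg mL^−1 doxycycline plus 500 μM (+)-ketamine, loaded 60 min at 37 °C with calcium dye in Mg-free HBSS (1.8 mM Ca, probenecid, 10 μM (+)-ketamine, pH 7.15). Peak RFU over 5 min after compound addition, scaled to 100 μM L-glutamate (100%) and 0 μM (0%); four-parameter Hill fit for EC50, max % if no plateau.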

T1 sequence (Q12879 23-1464, other chains not shown): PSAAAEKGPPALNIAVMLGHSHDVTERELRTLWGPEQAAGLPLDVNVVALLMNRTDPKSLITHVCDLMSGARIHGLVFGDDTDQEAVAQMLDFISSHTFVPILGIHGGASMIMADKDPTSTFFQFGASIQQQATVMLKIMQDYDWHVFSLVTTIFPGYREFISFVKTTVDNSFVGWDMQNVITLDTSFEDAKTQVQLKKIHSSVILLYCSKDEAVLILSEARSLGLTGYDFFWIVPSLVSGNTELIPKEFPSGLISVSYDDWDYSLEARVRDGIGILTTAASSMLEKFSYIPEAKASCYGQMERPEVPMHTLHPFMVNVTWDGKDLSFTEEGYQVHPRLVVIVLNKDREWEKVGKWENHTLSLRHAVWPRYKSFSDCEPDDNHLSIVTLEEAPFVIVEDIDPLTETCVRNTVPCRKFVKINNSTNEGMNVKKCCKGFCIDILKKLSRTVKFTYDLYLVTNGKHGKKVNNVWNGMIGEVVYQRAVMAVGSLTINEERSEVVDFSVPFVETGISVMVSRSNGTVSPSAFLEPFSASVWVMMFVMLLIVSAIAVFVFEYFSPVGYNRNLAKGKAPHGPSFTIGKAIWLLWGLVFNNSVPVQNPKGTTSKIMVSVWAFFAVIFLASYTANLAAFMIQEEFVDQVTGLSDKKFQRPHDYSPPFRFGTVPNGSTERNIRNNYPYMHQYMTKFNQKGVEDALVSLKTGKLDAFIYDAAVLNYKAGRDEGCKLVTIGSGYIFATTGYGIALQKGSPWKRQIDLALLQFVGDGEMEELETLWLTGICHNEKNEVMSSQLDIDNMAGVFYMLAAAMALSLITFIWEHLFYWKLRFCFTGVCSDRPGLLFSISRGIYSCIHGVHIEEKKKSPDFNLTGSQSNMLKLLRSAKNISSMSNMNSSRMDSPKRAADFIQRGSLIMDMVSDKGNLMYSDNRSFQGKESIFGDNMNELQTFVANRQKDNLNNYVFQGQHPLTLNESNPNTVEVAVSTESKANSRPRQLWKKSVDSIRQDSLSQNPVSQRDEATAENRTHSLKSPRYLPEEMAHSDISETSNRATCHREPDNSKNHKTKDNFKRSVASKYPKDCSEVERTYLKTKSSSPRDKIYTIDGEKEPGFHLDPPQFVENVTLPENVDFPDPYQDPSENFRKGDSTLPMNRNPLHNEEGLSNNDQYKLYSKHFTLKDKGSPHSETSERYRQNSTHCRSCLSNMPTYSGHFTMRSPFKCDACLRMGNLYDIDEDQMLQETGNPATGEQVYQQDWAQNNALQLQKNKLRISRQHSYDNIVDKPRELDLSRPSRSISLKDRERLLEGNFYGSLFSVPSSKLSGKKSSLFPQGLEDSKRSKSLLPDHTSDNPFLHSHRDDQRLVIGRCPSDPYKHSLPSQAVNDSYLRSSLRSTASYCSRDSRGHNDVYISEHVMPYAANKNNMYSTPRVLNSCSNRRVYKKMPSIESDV

SMILES | EC50 (Table 3) [µM] | Max % (Table 2) [%] | EC50 (Table 2) [µM]
Cc1sc2nc(Cn3nc(Cl)cc3C(F)(F)F)cc(=O)n2c1C(C)C#N (centres unmarked) [compound 252, 2-[7-[[3-chloro-5-(trifluoromethyl)pyrazol-1-yl]methyl]-2-methyl-5-oxo-thiazolo[3,2-a]pyrimidin-3-yl]propanenitrile] | 5.76 | – | –
CNC(=O)c1c(C)sc2nc(COc3ccc(F)c(F)c3)cc(=O)n12 [Example 1.6, 7-(3,4-Difluorophenoxymethyl)-N,2-dimethyl-5-oxo-5H-[1,3]thiazolo[3,2-a] pyrimidine-3-carboxamide] | – | 64 | 31.6
CNC(=O)c1c(C(F)(F)F)sc2nc(COc3ccc(F)cc3)cc(=O)n12 [Example 3.2, 7-(4-Fluorophenoxymethyl)-N-methyl-5-oxo-2-(trifluoromethyl)-5H-[1,3]thiazolo[3,2-a]pyrimidine-3-carboxamide] | – | 42.7 | 10.1
CCNC(=O)c1c(C)sc2nc(Cn3nc(C(F)(F)F)cc3Cl)cc(=O)n12 [compound 28, 7-[[5-Chloro-3-(trifluoromethyl)-1H-pyrazol-1-yl]methyl]-N-ethyl-2-methyl-5-oxo-5H-[1,3]thiazolo[3,2-a]pyrimidine-3-carboxamide] | 0.388 | – | –
Cc1sc2nc(Cn3nc(Cl)cc3Cl)cc(=O)n2c1C1CC1C#N (centres unmarked) [compound 251] | 0.42 | – | –
CCNC(=O)c1c(C2CC2)sc2nc(Cn3nc(C4CC4)cc3C(F)(F)F)cc(=O)n12 [Example 16.7, 2-cyclopropyl-7-((3-cyclopropyl-5-(trifluoromethyl)-1H-pyrazol-1-yl)methyl)-N-ethyl-5-oxo-5H-thiazolo[3,2-a]pyrimidine-3-carboxamide] | – | 67.5 | 36.2
CCNC(=O)c1c(OCC)sc2nc(Cc3cccc(C(F)(F)F)c3F)cc(=O)n12 [compound 156, 2-ethoxy-N-ethyl-7-[[2-fluoro-3-(trifluoromethyl)phenyl]methyl]-5-oxo-thiazolo[3,2-a]pyrimidine-3-carboxamide] | 1.47 | – | –
CNC(=O)Cc1c(C(F)(F)F)sc2nc(Cn3nc(C4CC4)cc3C(F)(F)F)cc(=O)n12 [compound 79, 2-[7-[[3-cyclopropyl-5-(trifluoromethyl)pyrazol-1-yl]methyl]-5-oxo-2-(trifluoromethyl)thiazolo[3,2-a]pyrimidin-3-yl]-N-methyl-acetamide] | 14.3 | – | –
Cc1sc2nc(Cc3cccc(C#N)c3)cc(=O)n2c1C1CC1C#N (centres unmarked) [Example 23.1, 3-((3-(2-cyanocyclopropyl)-2-methyl-5-oxo-5H-thiazolo[3,2-a]pyrimidin-7-yl)methyl)benzonitrile] | – | – | 18.1
Cc1sc2nc(Cn3nc(C(F)(F)F)cc3Cl)cc(=O)n2c1Cl [compound 192, 3-chloro-7-[[5-chloro-3-(trifluoromethyl)pyrazol-1-yl]methyl]-2-methyl-thiazolo[3,2-a]pyrimidin-5-one] | 0.198 | – | –
CNC(=O)c1c(C)sc2nc(Cc3cccc(C(F)F)c3F)cc(=O)n12 [Example 21.23, 7-[[3-(difluoromethyl)-2-fluoro-phenyl]methyl]-N,2-dimethyl-5-oxo-thiazolo[3,2-a]pyrimidine-3-carboxamide] | – | 107 | 6.5
Cc1sc2nc(Cn3nc(Cl)cc3C(F)(F)F)cc(=O)n2c1C#N [compound 115, 7-[[3-chloro-5-(trifluoromethyl)pyrazol-1-yl]methyl]-2-methyl-5-oxo-thiazolo[3,2-a]pyrimidine-3-carbonitrile] | 2.75 | – | –
CCNC(=O)c1c(C(F)(F)F)sc2nc(Cc3cccc(Cl)c3F)cc(=O)n12 [compound 50, 7-[(3-chloro-2-fluoro-phenyl)methyl]-N-ethyl-5-oxo-2-(trifluoromethyl)thiazolo[3,2-a]pyrimidine-3-carboxamide] | 6.4 | – | –
CCNC(=O)c1c(C)sc2nc(Cc3cc(F)c(F)cc3CC)cc(=O)n12 [Example 21.19, N-ethyl-7-(2-ethyl-4,5-difluorobenzyl)-2-methyl-5-oxo-5H-thiazolo[3,2-a]pyrimidine-3-carboxamide] | – | 145 | 7.4

More lines, now with the values ahead:

EC50 (Table 3) [µM] | Max % (Table 2) [%] | EC50 (Table 2) [µM] | SMILES
– | 43.2 | – | CCNC(=O)c1c(C)sc2nc(Cc3cccc(F)c3)cc(=O)n12 [Example 21.46, N-ethyl-7-(3-fluorobenzyl)-2-methyl-5-oxo-5H-thiazolo[3,2-a]pyrimidine-3-carboxamide]
– | 67.6 | – | Cc1cc(C2CC2)n(Cc2cc(=O)n3c([C@@H]4C[C@H]4CO)c(C)sc3n2)n1 (single isomer, unassigned) [Example 15.13, 7-[(5-cyclopropyl-3-methyl-pyrazol-1-yl)methyl]-3-[2-(hydroxymethyl)cyclopropyl]-2-methyl-thiazolo[3,2-a]pyrimidin-5-one]
– | 96.5 | – | CCC(O)c1c(C)sc2nc(COc3ccc(F)cc3)cc(=O)n12 (centres unmarked) [Example 2.2, 7-((4-fluorophenoxy)methyl)-3-(1-hydroxypropyl)-2-methyl-5H-thiazolo[3,2-a]pyrimidin-5-one]
– | 102 | 5 | Cc1sc2nc(COc3ccc(F)cc3)cc(=O)n2c1C1CC1C#N (racemic) [Example 4.18, cis-2-[7-(4-Fluorophenoxymethyl)-2-methyl-5-oxo-5H-[1,3]thiazolo[3,2-a]pyrimidin-3-yl]cyclopropane-1-carbonitrile]
– | 134 | 19 | Cc1sc2nc(Cc3cc(F)cc(C#N)c3)cc(=O)n2c1[C@@H]1C[C@H]1CO (relative stereo) [Example 20.8, 3-fluoro-5-((3-(trans-2-(hydroxymethyl)cyclopropyl)-2-methyl-5-oxo-5H-thiazolo[3,2-a]pyrimidin-7-yl)methyl)benzonitrile]
– | 160 | 8.9 | CCN(Cc1cc(=O)n2c(COC)c(C)sc2n1)c1cccc(C#N)c1 [Example 10.24, 3-[ethyl-[[3-(methoxymethyl)-2-methyl-5-oxo-thiazolo[3,2-a]pyrimidin-7-yl]methyl]amino]benzonitrile]
– | 59.5 | 11.2 | CCNC(=O)c1c(C)sc2nc(COc3ccc(F)cc3)cc(=O)n12 [Example 1.4, N-ethyl-7-(4-fluorophenoxymethyl)-2-methyl-5-oxo-5H-[1,3]thiazolo[3,2-a] pyrimidine-3-carboxamide]
– | 137 | – | C/C(=N\O)c1c(C)sc2nc(COc3ccc(F)cc3)cc(=O)n12 [Example 2.8, 7-(4-Fluorophenoxymethyl)-3-[1-(hydroxyimino)ethyl]-2-methyl-5H-[1,3]thiazolo[3,2-a]pyrimidin-5-one]
– | 143 | 1.9 | Cc1sc2nc(Cn3ncc4ccc(F)cc43)cc(=O)n2c1[C@@H]1C[C@H]1CO (relative stereo) [Example 15.23, 7-[(6-fluoroindazol-1-yl)methyl]-3-[trans-2-(hydroxymethyl)cyclopropyl]-2-methyl-thiazolo[3,2-a]pyrimidin-5-one]
– | 130 | 4.4 | CCN(Cc1cc(=O)n2c(C3CCC3)c(C)sc2n1)c1ccc(F)cc1 [Example 10.1, 3-cyclobutyl-7-[(N-ethyl-4-fluoro-anilino)methyl]-2-methyl-thiazolo[3,2-a]pyrimidin-5-one]
– | 176 | 0.0952 | CCN(Cc1cc(=O)n2c([C@@H]3C[C@H]3CO)csc2n1)c1ccc(F)cc1 (relative stereo) [Example 5.28, 7-[(N-ethyl-4-fluoro-anilino)methyl]-3-[trans-2-(hydroxymethyl)cyclopropyl)thiazolo[3,2-a]pyrimidin-5-one]
– | 164 | 0.091 | CCN(Cc1cc(=O)n2c(C3CC3CO)c(C)sc2n1)c1ccc(F)cc1 (single isomer, unassigned) [Example 5.18, 7-((ethyl(4-fluorophenyl)amino)methyl)-3-(trans-2-(hydroxymethyl)cyclopropyl)-2-methyl-5H-thiazolo[3,2-a] pyrimidin-5-one]
– | 61.3 | 26 | Cc1sc2nc(COc3ccc(F)cc3)cc(=O)n2c1C(=O)C1CC1 [Example 2.7, 3-Cyclopropanecarbonyl-7-(4-fluorophenoxymethyl)-2-methyl-5H-[1,3]thiazolo[3,2-a]pyrimidin-5-one]
– | 157 | 2.5 | CCc1sc2nc(CN(CC)c3ccc(F)cc3)cc(=O)n2c1-c1cncnc1 [Example 5.16, 2-ethyl-7-((ethyl(4-fluorophenyl)amino)methyl)-3-(pyrimidin-5-yl)-5H-thiazolo[3,2-a]pyrimidin-5-one]
– | 132 | 18.8 | CCN(Cc1cc(=O)n2c(CN3CC(O)C3)c(C)sc2n1)c1ccc(F)cc1 [Example 10.10, 7-[(N-ethyl-4-fluoro-anilino)methyl]-3-[(3-hydroxyazetidin-1-yl)methyl]-2-methyl-thiazolo[3,2-a]pyrimidin-5-one]
– | 147 | 0.445 | C=C(C)c1c(C)sc2nc(CN(CC)c3ccc(F)cc3)cc(=O)n12 [Example 5.29, 7-[(N-ethyl-4-fluoro-anilino)methyl]-3-isopropenyl-2-methyl-thiazolo[3,2-a]pyrimidin-5-one]
– | 176 | 0.108 | CCN(Cc1cc(=O)n2c([C@@H]3C[C@H]3CO)c(C)sc2n1)c1ccc(F)cc1 (relative stereo) [Example 5.17, 7-((ethyl(4-fluorophenyl)amino)methyl)-3-(trans-2-(hydroxymethyl)cyclopropyl)-2-methyl-5H-thiazolo[3,2-a] pyrimidin-5-one]
3.14 | – | – | Cc1sc2nc(Cn3nc(C(F)(F)F)cc3Cl)cc(=O)n2c1C1CCC1 [compound 188, 7-[[5-chloro-3-(trifluoromethyl)pyrazol-1-yl]methyl]-3-cyclobutyl-2-methyl-thiazolo[3,2-a]pyrimidin-5-one]
